Values quoted from earlier work as cited in patent US20230405042A1, “Compositions to Modify Intestinal Nutrient Absorption, Methods of Making and Uses Thereof” (McMaster University, priority 2022, published 2023).

System: rodents
Settings: oral delivery or injection in rodents

| SMILES | Liver glycogen formation |
| --- | --- |
| C[C@@H](O)C(=O)O [D-lactate] | leads to glycogen deposition in the liver |
| C[C@H](O)C(=O)O [L-lactate] | hardly forms any liver glycogen |
